Patent publication US8993515B2, “Peptidomimetics comprising N-amino cyclic urea residues and uses thereof” (Valorisation-Recherche, Limited Partnership, priority 2012, dated 2015)
Residues, ends and D or L forms follow the SMILES beside them.

Experiments:
[1] = system: NF-κB activation in HEK Blue IL-33/IL-1β sensor cells; assay: HEK Blue SEAP reporter gene assay of NF-κB activation; type: cell-based; conditions: peptide 1 μM; human IL-1β 2.5 ng/mL; 24 h
Protocol: Activation of the NF-κB pathway upon interaction with IL-1β (or IL-33) receptor complex at the membrane was assessed via HEK-Blue SEAP reporter gene assay (InvivoGen®, California, USA). Basically, HEK Blue IL-33/IL-1β sensor cells were cultured in growth medium made of complete Dulbecco's modified Eagle medium (DMEM; 4.5 g/L glucose, 2 mM L-glutamine, […], 10% fetal bovine serum, 50 U/mL penicillin, 50 μg/mL streptomycin; Gibco Invitrogen®, Ontario, Canada) supplemented with selection antibiotics (30 μg/mL Blasticidin®, 200 μg/mL HygroGold® and 100 μg/mL Zeocin®; InvivoGen, California, USA). Upon reaching almost 70% confluency, HEK Blue cells were reincorporated into complete DMEM medium and split (2.5×10^4 cells in 180 μL/well) into 96-well membrane-treated flat bottom culture plates (Plate #3595, Corning Life Sciences, Massachusetts, USA). Cells were pretreated with 10 μL of peptide or peptidomimetic (1 μM) for 15 min., after which 10 μL of human IL-1β (2.5 ng/mL, PeproTech®, Rocky Hill, N.J., USA) was added. Following 24 h of incubation, 40 μL of the cells supernatant was added to a UV-transparent 96-well plate (Plate #3635, Corning Life Sciences®, Massachusetts, USA) already filled with 160 μL of resuspended Quanti-Blue® dye (1×, InvivoGen, California, USA). The plate was covered and incubated for 20 min. The level of SEAP was measured by reading absorbance (or optical density, OD) at 620 nm using a multiplate reader equipped with a monochromator (Perkin Elmer Wallac Envision® 2104; Perkin Elmer®, California, USA). Hexaplicate results were normalized over complete DMEM background signal and analyzed by one-way analysis of variance (ANOVA) factoring for treatments, and data are presented as mean±standard error of the mean (SEM).

human TF-1 cells = assay: IL-1β-induced thymocyte (TF-1) proliferation, CyQUANT NF dye; type: cell-based; conditions: peptide 1 μM; human IL-1β 25 ng/mL; 48 h
Protocol: Immune cell proliferation was assessed by DNA intercalation of CyQUANT NF® fluorescent dye (Invitrogen, Carlsbad, Calif., USA). Essentially, human TF-1 cells (CRL-2003, American Type Culture Collection) were cultured in complete RPMI 1640 (WISENT Inc., Montréal, Quebec, Canada) supplemented with human GM-CSF (2 ng/ml, PeptroTech, Rocky Hill, N.J., USA). Cells (passage 5 and at least 85% viable, as verified by trypan blue dying) were reincorporated into RPMI 1640 medium deprived of phenol red (Gibco Invitrogen®, Carlsbad, Calif., USA) and of growth factors [i.e. fetal bovine serum (FBS) and GM-CSF] for 18 h and split (5×10^3 cells in 200 μL/well) into 96-well non-adherent flat bottom culture plates (Sarstedt®, Nümbrecht, Germany). Following 15 min pre-incubation with peptide or peptidomimetic (1 μM), the cells were treated with human IL-1β (25 ng/mL, PeproTech®, Rocky Hill, N.J., USA) and re-incubated. After 48 h, the cells were centrifuged for 7 min at 300 g, reincorporated into Hank's Buffered Salt Solution (1×HBSS, 50 μL/well, Gibco Invitrogen®, Carlsbad, Calif., USA) and transferred into a 96-well polystyrene black plate (Corning Incorporated, Corning, N.Y., USA). An additional 50 μL solution made of CyQUANT NF® dye (component A, 1×) and CyQUANT NF™ delivery agent (component B, 1×) in 1×HBSS was added to the cells in each well, which were covered with aluminum foil and incubated for 45 min. Fluorescence intensity was measured using a microplate reader (Perkin Elmer Wallac Envision® 2104; Perkin Elmer®, California, USA) with excitation at 485 nm and emission detection at 530 nm (FITC 485 and FITC 531 filters, respectively). Hexaplicate experiments were repeated three times and results were analyzed by one-way analysis of variance (ANOVA) factoring for treatments, and data are presented as mean±standard error of the mean (SEM).

## CC(C)C[C@@H](NC(=O)[C@@H](CCC(=O)O)NC(=O)[C@@H](C(C)C)N1CCN(NC(=O)[C@@H](Cc2ccc(O)cc2)NC(=O)[C@H](N)CCCNC(=N)N)C1=O)C(=O)N[C@H](C)C(N)=O [[Nai^3]-101.10, D-Arg-D-Tyr-Nai-D-Val-D-Glu-D-Leu-D-Ala-NH2] (HELM PEPTIDE1{[dR].[dY].[CC(C)[C@H](C(=O)[*:2])N1CCN(N[*:1])C1=O].[dE].[dL].[dA].[am]}$$$$V2.0)
[1]
  inhibition of NF-κB activation (OD620): 65%
Human TF-1 cells
  diminished IL-1β-induced proliferation: 77%

## Kineret: a competitive IL-1R antagonist
[1]
  inhibition of NF-κB activation (OD620): 100%

## D-Arg-D-Tyr-D-Thr-D-Val-DGlu-D-Leu-D-Ala-NH2 [101.10, reference compound]
[1]
  inhibition of NF-κB activation (OD620): 77%
Human TF-1 cells
  diminished IL-1β-induced proliferation: 15%
